Source: ChEMBL document CHEMBL1151133, “Plant metabolites. Structure and in vitro antiviral activity of quinovic acid glycosides from Uncaria tomentosa and Guettarda platypoda” (J Nat Prod, 1989)
Values after ≈ are worked out from the molar mass of the structure shown.

Tests used:
[1] = test system: Vesicular stomatitis Indiana virus; assay: Antiviral activity against Vesicular stomatitis Indiana virus infected in golden hamster CER cells assessed as reduction in virus plaque formation after 36 to 48 hrs; type: functional
[2] = Cytotoxicity against golden hamster CER cells after 2 days by neutral red uptake assay; type: cell-based, Mesocricetus auratus; conditions: read-out: TC50
[3] = Cytotoxicity against human HeLa cells assessed as maximum non-toxic drug level after 2 days by neutral red uptake assay; type: cell-based; conditions: read-out: MNCC
rhinovirus A1B [4] = assay: Antiviral activity against HRV1B infected in human HeLa cells assessed as reduction in virus-induced cytopathic effect at 30 ug/ml; type: functional, Human rhinovirus 1B; set-up: scale not given: the % may be the effect or the level left
rhinovirus A1B [5] = assay: Antiviral activity against HRV1B infected in human HeLa cells assessed as reduction in virus-induced cytopathic effect at 20 ug/ml; type: functional, Human rhinovirus 1B; set-up: scale not given: the % may be the effect or the level left

SMILES | MIC50 [1] | CC50 at 48 h [2] | MNTC at 48 h [3] | Activity (rhinovirus A1B [4]) | Activity (rhinovirus A1B [5])
C[C@H]1[C@H](C)CC[C@]2(C(=O)O[C@@H]3O[C@H](CO)[C@@H](O)[C@H](O)[C@H]3O)CC[C@]3(C(=O)O)C(=CC[C@@H]4[C@@]5(C)CC[C@H](O[C@@H]6O[C@H](CO)[C@@H](O)[C@H](O)[C@H]6O)C(C)(C)[C@@H]5CC[C@]43C)[C@H]12 | 40 µM (≈ 32.4 µg/mL) | 150 µg/mL (≈ 185 µM) | 100 µg/mL | 50% | 50%
C[C@H]1[C@H](C)CC[C@]2(C(=O)O)CC[C@]3(C(=O)O)C(=CC[C@@H]4[C@@]5(C)CC[C@H](O[C@@H]6O[C@H](C)[C@H](O)[C@H](O[C@@H]7O[C@H](CO)[C@@H](O)[C@H](O)[C@H]7O)[C@H]6O)C(C)(C)[C@@H]5CC[C@]43C)[C@H]12 | 25 µM (≈ 19.9 µg/mL) | 100 µg/mL (≈ 126 µM) |  |  | 
C[C@H]1[C@H](C)CC[C@]2(C(=O)O)CC[C@]3(C(=O)O[C@@H]4O[C@H](CO)[C@@H](O)[C@H](O)[C@H]4O)C(=CC[C@@H]4[C@@]5(C)CC[C@H](O[C@@H]6O[C@H](C)[C@H](O)[C@H](O[C@@H]7O[C@H](CO)[C@@H](O)[C@H](O)[C@H]7O)[C@H]6O)C(C)(C)[C@@H]5CC[C@]43C)[C@H]12 | 63 µM (≈ 60.3 µg/mL) | 100 µg/mL (≈ 104 µM) |  |  | 
C[C@H]1[C@H](C)CC[C@]2(C(=O)O[C@@H]3O[C@H](CO)[C@@H](O)[C@H](O)[C@H]3O)CC[C@]3(C(=O)O)C(=CC[C@@H]4[C@@]5(C)CC[C@H](O[C@@H]6O[C@H](C)[C@H](O)[C@H](O)[C@H]6O)C(C)(C)[C@@H]5CC[C@]43C)[C@H]12 | 40 µM (≈ 31.8 µg/mL) | 80 µg/mL (≈ 101 µM) |  |  | 
C[C@H]1[C@H](C)CC[C@]2(C(=O)O)CC[C@]3(C(=O)O)C(=CC[C@@H]4[C@@]5(C)CC[C@H](O[C@@H]6O[C@H](CO)[C@@H](O)[C@H](O)[C@H]6O)C(C)(C)[C@@H]5CC[C@]43C)[C@H]12 | 51 µM (≈ 33.1 µg/mL) | 150 µg/mL (≈ 231 µM) |  |  | 
C[C@H]1[C@H](C)CC[C@]2(C(=O)O[C@@H]3O[C@H](CO)[C@@H](O)[C@H](O)[C@H]3O)CC[C@]3(C(=O)O)C(=CC[C@@H]4[C@@]5(C)CC[C@H](O[C@@H]6O[C@H](C)[C@@H](O)[C@H](O)[C@H]6O)C(C)(C)[C@@H]5CC[C@]43C)[C@H]12 | 28 µM (≈ 22.3 µg/mL) | 80 µg/mL (≈ 101 µM) |  |  | 
C[C@H]1[C@H](C)CC[C@]2(C(=O)O)CC[C@]3(C(=O)O[C@@H]4O[C@H](CO)[C@@H](O)[C@H](O)[C@H]4O)C(=CC[C@@H]4[C@@]5(C)CC[C@H](O[C@@H]6O[C@H](CO)[C@@H](O)[C@H](O)[C@H]6O)C(C)(C)[C@@H]5CC[C@]43C)[C@H]12 | 87 µM (≈ 70.6 µg/mL) | 150 µg/mL (≈ 185 µM) |  |  | 
C[C@H]1[C@H](C)CC[C@]2(C(=O)O[C@@H]3O[C@H](CO)[C@@H](O)[C@H](O)[C@H]3O)CC[C@]3(C(=O)O)C(=CC[C@@H]4[C@@]5(C)CC[C@H](O[C@@H]6O[C@H](C)[C@H](O)[C@H](O[C@@H]7O[C@H](CO)[C@@H](O)[C@H](O)[C@H]7O)[C@H]6O)C(C)(C)[C@@H]5CC[C@]43C)[C@H]12 | 42 µM (≈ 40.2 µg/mL) | 80 µg/mL (≈ 83.6 µM) |  |  | 
